The source of these data is PubChem BioAssay (NCI).

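Values below derive from 48-hour exposures of cells grown in 96-well plates, with endpoints linearly interpolated between the two concentrations bracketing the appropriate inhibition level. GI50 is the concentration that inhibits growth by half. TGI: concentration producing complete growth inhibition.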 *1 amine or outer side, *2 acyl side, *3 side chain or, on linkers, in order; H or OH if unused. Where a SMILES comes first, the peptide text is derived from it. Bridges are numbered along the chain shown (N, C = ends). [ ]: non-standard residue; d: D form. The star is where a group is joined. Phe(3-Me) = Cc1cccc(C[C@H](N)C(=O)O)c1; NH(4-Cl-2-F-phenyl) = Fc1cc(Cl)ccc1N*; Pro(4R-Me) = C[C@H]1CN[C@H](C(=O)O)C1; Propanoyl(3-NMe2) = CN(C)CCC(=O)*; Hyp = O=C(O)[C@@H]1C[C@@H](O)CN1; aThr = C[C@H](O)[C@H](N)C(=O)O; Pip = O=C(O)[C@@H]1CCCCN1; CO = O=C([*:1])[*:2] A value given as a limit tells only on which side of the number the result lay.

Common to all, as to test: growth of human tumour cells (NCI), 48 h
In test [1] the test system is MDA-MB-435.
Test [2] has as its system SF-295 CNS.
In test [3] the test system is OVCAR-8 ovarian.
Test [4] concerns PC-3 prostate.
Test [5] concerns SR leukemia.
Test [6] deals with HT29 colon.
Test [7] deals with SN12C renal.
For test [8], the system named is SK-OV-3 ovarian.
Test [9] has as its system K-562 leukemia.
The subject of test [10] is UACC-62 melanoma.

As for `O=C1c2cccnc2C(=O)c2c1c(C(=O)OCCN1CCOCC1)c1ccccn21`, the GI50 in test [1] was 0.0387 µM; in test [2] it was 0.0197 µM; in [3], less than 0.0168 µM; in test [4], 0.0816 µM; in [5], less than 0.01 µM; in [6] it was 0.316 µM. Also, the GI50 in test [7] is less than 0.01 µM; in [8], less than 0.01 µM; in test [9], 0.0198 µM; in [10], less than 0.01 µM. Besides, the TGI turned out to be 0.65 µM in test [1]; 1.05 µM in test [2]; 9.21 µM in [3]; 17.1 µM in test [4]; 1.83 µM in test [5]; 2.31 µM in test [6]. The TGI in [7] amounted to 1.78 µM; in test [8] it was 0.0371 µM; in [10], 0.11 µM.
`Nc1c(C(=O)Nc2ccccc2)sc2nc3c(cc12)CCCC3`: the GI50 in test [1] is 0.172 µM; in [2], 0.635 µM; in [3], 1.8 µM; in test [4] it was 0.703 µM; in test [5], 0.36 µM; in test [6] it was 0.74 µM. The GI50 is 1.23 µM in [7], 0.832 µM in test [8], 0.436 µM in [9] and 0.493 µM in test [10]. The TGI is 0.415 µM in test [1]; 49.6 µM in test [2]; greater than 100 µM in test [3]; greater than 71.2 µM in test [4]; 19.6 µM in test [5]; greater than 26.3 µM in test [6]. Also, the TGI is greater than 100 µM in test [7], 37.5 µM in test [8], greater than 100 µM in test [9] and greater than 100 µM in test [10].
With `Cc1cccc(C[C@H](NC(=O)Nc2ccc(Cl)cc2F)C(=O)N[C@@H]2C(=O)N3C[C@H](OC(=O)CCN(C)C)C[C@H]3C(=O)N3CCCC[C@H]3C(=O)N[C@@H](C)C(=O)N3C[C@H](C)C[C@H]3C(=O)O[C@H]2C)c1` ({NH(4-Cl-2-F-phenyl)-CO}-[Phe(3-Me)][aThr][Hyp](Propanoyl(3-NMe2))[Pip]A[Pro(4R-Me)]; ester 2-C), the GI50 was 0.432 µM in test [1]; 0.426 µM in test [2]; 0.431 µM in test [3]; 0.368 µM in [4]; 0.624 µM in test [5]; 0.526 µM in test [6]. The GI50 in [7] is 0.371 µM; in test [8] it was 0.487 µM; in [9], 0.3 µM; in [10], 0.569 µM. The TGI in test [1] worked out at 1.65 µM; in test [2], 2.15 µM; in [3], 12.9 µM; in test [4] it was 1.76 µM; in test [5], 3.94 µM; in test [6], 2.82 µM. Also, the TGI was found to be 2.18 µM in test [7], 5.74 µM in [8] and 2.06 µM in [10].
As to `COc1cc(NC(N)=NCCC(C)(C)c2ccc(C(F)(F)F)cc2)ncc1C#N`, the GI50 in test [1] was 1.78 µM; in test [2], 1.6 µM; in test [3], 1.7 µM; in test [4] it was 1.55 µM; in [5], 1.7 µM; in [6], 1.62 µM. Besides, the GI50 in test [7] is 1.47 µM; in test [8] it was 2.13 µM; in test [9], 1.42 µM; in [10], 1.71 µM. The TGI is 3.25 µM in [1]; 3.06 µM in test [2]; 3.18 µM in [3]; 3.17 µM in [4]; 4.06 µM in test [5]; 3.14 µM in [6]. For the same compound, the TGI in test [7] was 2.82 µM; in [8], 4.06 µM; in test [9], 5.02 µM; in test [10], 3.1 µM.
In the case of `COc1ccc(CNc2nc(NCc3ccc(OC)cc3)c3n[nH]c(C(C)C)c3n2)cc1`, the GI50 in test [1] is 3.17 µM; in [2] it was 3.24 µM; in [3] it was 12.5 µM; in [4] it was 4.29 µM; in [5] it was 2.48 µM; in [6], 1.61 µM. For the same compound, the GI50 in test [7] was 9.14 µM; in [8], 8.3 µM; in test [9], 3.13 µM; in test [10], 5.94 µM. Further, the TGI in test [1] came to 11.1 µM; in test [2], 9.96 µM; in [3], 53.6 µM; in [4], 23.8 µM; in test [5], 6.17 µM; in test [6] it was 10.7 µM. Further, the TGI in test [7] stood at 27.7 µM; in [8] it was 22.9 µM; in test [9], 11.7 µM; in [10], 20 µM.
